Test results reported in patent publication US20050171358A1 (priority 2002, published 2005).

Legend:
Phytophthora infestans = assay type: in vivo; conditions: 125 ppm, 200 L/10 a spray on tomato (5 leaf stage), inoculated next day; diseased area rates of third to fifth true leaves after 3 days in green house, graded by Table 5
[1] = tested on: Pseudoperonospora cubensis; assay: Effect test for cucumber downy mildew (Evaluation Example 4); assay type: in vivo; conditions: 125 ppm, 200 L/10 a spray on cucumber (3 leaf stage), inoculated next day; diseased area rates of first and second true leaves after 3 days in green house, graded by Table 5
Method: The active ingredient compound was diluted with water containing 0.01% Tween 20 to have a concentration of 125 ppm. […] Next day, a zoosporangium suspension of Pseudoperonospora cubensis which was the causative fungus of cucumber downy mildew was sprayed to inoculate.

Pyricularia oryzae = assay type: in vivo; conditions: 200 ppm spray on rice (Koshihikari, 3 leaf stage), inoculated next day; lesion numbers on third leaves after 7 days in green house, graded by Table 5
[2] = tested on: Colletotrichum lagenarium; conditions: 200 ppm spray on cucumber (3 leaf stage), inoculated next day; lesion numbers on first and second leaves after 7 days in green house, graded by Table 5

SMILES	Evaluation (effect for tomato late blight) (Phytophthora infestans)	Evaluation (effect for cucumber downy mildew) [1]	Evaluation (effect for rice blast) (Pyricularia oryzae)	Evaluation (effect for cucumber anthracnose) [2]
COc1ccc(C(=O)NCc2cc(CN3Cc4ccccc4C3)no2)cc1	1 (21˜41)	–	–	–
O=C(COc1ccccc1)NCc1cc(CCl)no1 [I-65, N-[(3-chloromethyl-5-isoxazolyl)methyl]phenoxyacetamide]	4 (1˜5)	2 (11˜20)	–	–
O=C(Cc1ccccc1)NCc1cc(CCl)no1 [I-67, N-[(3-chloromethyl-5-isoxazolyl)methyl]phenylacetamide]	2 (11˜20)	–	–	–
O=C(NCc1cc(CCl)no1)NC1CCCC1 [II-107, 3-(3-chloromethyl-5-isoxazolyl)methyl-1-cyclopentylurea]	4 (1˜5)	2 (11˜20)	–	–
O=C(NCc1cc(CBr)no1)NC1CCCCC1 [II-111, 3-(3-bromomethyl-5-isoxazolyl)methyl-1-cyclohexylurea]	5 (0)	3 (6˜10)	–	–
COc1ccc(C(=O)NCc2cc(CCl)no2)cc1 [III-3, N-[(3-chloromethyl-5-isoxazolyl)methyl]-4-methoxy benzamide]	2 (11˜20)	4 (1˜5)	–	–
Cc1ccc(-c2cc(CNC(=O)N3CCOCC3)on2)cc1 [III-204, N-{[3-(4-tolyl)-5-isoxazolyl]methyl}-4-morpholinecarboxamide]	–	4 (1˜5)	2 (11˜20)	2 (11˜20)
Cc1ccc(-c2cc(CNC(=O)C3CCCCC3)on2)cc1 [III-222, N-{[3-(4-tolyl)-5-isoxazolyl]methyl}cyclohexanecarboxamide]	–	4 (1˜5)	3 (6˜10)	2 (11˜20)
O=C(NCc1cc(CCl)no1)c1ccccc1 [III-226, N-[(3-chloromethyl-5-isoxazolyl)methyl]benzamide]	3 (6˜10)	4 (1˜5)	–	–
O=C(NCc1cc(CCl)no1)C1CCCCC1 [III-233, N-[(3-chloromethyl-5-isoxazolyl)methyl]cyclohexanecarboxamide]	2 (11˜20)	–	–	–
O=C(NCc1cc(CCl)no1)c1ccc(Cl)cc1 [III-254, N-[(3-chloromethyl-5-isoxazolyl)methyl]-4-chlorobenzamide]	5 (0)	3 (6˜10)	–	–
O=C(NCc1cc(CCl)no1)c1ccc(Br)cc1 [III-260, N-[(3-chloromethyl-5-isoxazolyl)methyl]-4-bromobenzamide]	3 (6˜10)	–	–	–
O=C(NCc1cc(CCl)no1)c1ccc(C(F)(F)F)cc1 [III-261, N-[(3-chloromethyl-5-isoxazolyl)methyl]-4-trifluoromethylbenzamide]	2 (11˜20)	–	–	–
O=C(C=Cc1ccccc1)NCc1cc(CCl)no1 [III-266, N-[(3-chloromethyl-5-isoxazolyl)methyl]-β-phenylacrylamide]	1 (21˜41)	–	–	–
O=C(NCc1cc(CCl)no1)c1ccc2ccccc2c1 [III-267, N-[(3-chloromethyl-5-isoxazolyl)methyl]-2-naphthalenecarboxamide]	5 (0)	5 (0)	–	–
O=C(NCc1cc(CCl)no1)c1cccc2ccccc12 [III-268, N-[(3-chloromethyl-5-isoxazolyl)methyl]-1-naphthalenecarboxamide]	0 (41 or more)	–	–	–

SMILES	Evaluation (effect for tomato late blight) (Phytophthora infestans)	Evaluation (effect for cucumber downy mildew) [1]	Evaluation (effect for rice blast) (Pyricularia oryzae)	Evaluation (effect for cucumber anthracnose) [2]
CCc1ccc(C(=O)NCc2cc(CCl)no2)cc1 [III-269, N-[(3-chloromethyl-5-isoxazolyl)methyl]-4-ethylbenzamide]	5 (0)	5 (0)	–	–
O=C(NCc1cc(CCl)no1)c1ccc(OCCl)cc1 [III-270, N-[(3-chloromethyl-5-isoxazolyl)methyl]-4-chloromethyloxybenzamide]	2 (11˜20)	–	–	–
O=C(NCc1cc(CCl)no1)c1ccc(Cl)cc1Cl [III-271, N-[(3-chloromethyl-5-isoxazolyl)methyl]-2,4-dichlorobenzamide]	1 (21˜41)	–	–	–
Cc1ccccc1C(=O)NCc1cc(CCl)no1 [III-273, N-[(3-chloromethyl-5-isoxazolyl)methyl]-2-methylbenzamide]	0 (41 or more)	–	–	–
COc1ccc(C(=O)NCc2cc(C(=O)Nc3ccccc3C#N)no2)cc1 [IV-112, N-{[3-(2-cyanophenyl)aminocarbonyl-5-isoxazolyl]methyl}-4-methoxybenzamide]	–	–	2 (11˜20)	3 (6˜10)
O=C(NCc1cc(C(=O)Nc2ccccc2)no1)c1ccccc1 [IV-113, N-[(3-phenylaminocarbonyl-5-isoxazolyl)methyl]benzamide]	–	–	4 (1˜5)	4 (1˜5)
O=C(NCc1cc(C(=O)Nc2ccccc2)no1)c1ccc(Cl)cc1 [IV-114, N-[(3-phenylaminocarbonyl-5-isoxazolyl)methyl]-4-chlorobenzamide]	–	–	5 (0)	5 (0)
Cc1ccc(C(=O)NCc2cc(C(=O)Nc3ccccc3)no2)cc1 [IV-115, N-[(3-phenylaminocarbonyl-5-isoxazolyl)methyl]-4-methylbenzamide]	–	–	5 (0)	5 (0)
Cc1cccc(C(=O)NCc2cc(C(=O)Nc3ccccc3)no2)c1 [IV-116, N-[(3-phenylaminocarbonyl-5-isoxazolyl)methyl]-3-methylbenzamide]	–	–	5 (0)	4 (1˜5)
Cc1ccccc1C(=O)NCc1cc(C(=O)Nc2ccccc2)no1 [IV-117, N-[(3-phenylaminocarbonyl-5-isoxazolyl)methyl]-2-methylbenzamide]	–	–	4 (1˜5)	4 (1˜5)
COc1ccc(C(=O)NCc2cc(C(=O)NC(C)(C)C)no2)cc1 [IV-119, N-[(3-tert-butylaminocarbonyl-5-isoxazolyl)methyl]-4-methoxybenzamide]	–	–	2 (11˜20)	3 (6˜10)
COc1ccc(C(=O)NCc2cc(C(=O)NC3CCCC3)no2)cc1 [IV-120, N-[(3-cyclopentylaminocarbonyl-5-isoxazolyl)methyl]-4-methoxybenzamide]	–	–	3 (6˜10)	2 (11˜20)
O=C(NCc1cc(COc2ccccc2)no1)C1CCCCC1 [IV-121, N-[(3-phenoxymethyl-5-isoxazolyl)methyl)cyclohexanecarboxamide]	–	–	4 (1˜5)	4 (1˜5)
O=C(NCc1cc(COc2ccccc2)no1)c1cc(Cl)nc(Cl)c1 [IV-122, N-[(3-phenoxymethyl-5-isoxazolyl)methyl]-2,6-dichloropyridine-4-carboxamide]	–	–	3 (6˜10)	2 (11˜20)
COc1ccc(C(=O)NCc2cc(/C=N/OCc3ccccc3)no2)cc1 [IV-124, N-[(3-benzyloxyiminomethyl-5-isoxazolyl)methyl]-4-methoxybenzamide]	–	–	5 (0)	5 (0)
